In brackets after ≈: the same amount, converted by molar mass.
Tests used:
Rattus norvegicus = settings: for LD50: acute, mortality
Anas platyrhynchos = settings: for LD50: oral, mortality; for NOEL: reproductive
Tagia sp. = settings: acute; duration: 14 days; mortality
Apis mellifera = settings: acute; duration: 48 hours; oral; unspecified; mortality
Aphidius rhopalosiphi = experiment: LR50; higher = less toxic; settings: not reported; mortality
Typhlodromus pyri = experiment: LR50; higher = less toxic; settings: not reported; mortality

SMILES | LC50 (Oncorhynchus mykiss; acute, duration: 96 hours, mortality) | NOEC (Oncorhynchus mykiss; chronic/long-term, duration: 28 days, growth) | LD50 (Rattus norvegicus) | NOEL (Rattus norvegicus; chronic) | LOAEL (Rattus norvegicus; chronic, duration: 2 years, organ weight) | NOAEL (Rattus norvegicus; reproduction developmental, organ weight) | LD50 (Anas platyrhynchos; acute, unspecified) | NOEL (Anas platyrhynchos; duration: 6 weeks) | NOEL (Anas platyrhynchos; duration: 20 weeks, body weight) | LD50 (Anas platyrhynchos; short-term, feed) | LC50 (Tagia sp.) | LD50 (Apis mellifera) | LR50 (Aphidius rhopalosiphi) | LR50 (Typhlodromus pyri) | LD50 (Rattus norvegicus; oral) | NOEL (Rattus norvegicus; reproduction developmental, M, reproduction)
CS(=O)(=O)c1ccc(C(=O)C2C(=O)CCCC2=O)c(Cl)c1 [Sulcotrione] | 227 µg/mL (≈ 690 µM) | 3.2 mg/L | > 5000 mg/kg-day | 0.5 mg/kg-day | 0.04 mg/kg-day | 0.06 mg/kg-day | > 1350 mg/kg-day | 17 mg/kg-day | < 10.9 mg/kg-day | > 1260 mg/kg-day | > 1000 mg/kg | 50 µg/piece | > 450 g/ha | > 450 g/ha | – | –
CS(=O)(=O)c1ccc(C(=O)O)c(Cl)c1 [Benzoic acid, 2-chloro-4-(methylsulfonyl)-] | – | – | – | – | – | – | – | – | – | > 2010 mg/kg-day | – | – | – | – | > 2000 mg/kg-day | 969 mg/kg-day

Source: EPA's ToxValDB 9.5 (doi:10.2903/j.efsa.2008.150r)
